Source: patent US6245917A, “Crystalline sodium phenytoin monohydrate” (Warner-Lambert Company, priority 1999, dated 2001)

Experiment: Preliminary solubility studies, ethanol versus water
Format: physicochemical

O=C1NC(=O)C(c2ccccc2)(c2ccccc2)N1 [sodium phenytoin]
solubility in ethanol compared with water: less soluble in ethanol than it is in water
